{
  "source": "patent US7879542B2",
  "about": "“Methylated gene biomarkers for detecting cancer” (The Johns Hopkins University, priority 2003, dated 2011)",
  "molecules": {"B1": {"name": "SPARC: Purified human platelet SPARC protein purchased from Calbiochem (protein, UniProt P09486 18-303, looked up)", "SPARC": "APQQEALPDETEVVEETVAEVTEVSVGANPVQVEVGEFDDGAEETEEEVVAENPCQNHHCKHGKVCELDENNTPMCVCQDPTSCPAPIGEFEKVCSNDNKTFDSSCHFFATKCTLEGTKKGHKLHLDYIGPCKYIPPCLDSELTEFPLRMRDWLKNVLVTLYERDEDNNLLTEKQKLRVKKIHENEKRLEAGDHPVELLARDFEKNYNMYIFPVHWQFGQLDQHPIDGYLSHTELAPLRAPLIPMEHCTTRFFETCDLDNDKYIALDEWAGCFGIKQKDIDKDLVI"}},
  "key": {"SPARC mRNA expression": {"test_system": "SPARC mRNA expression", "experiment": "5Aza-dC / TSA treatment of pancreatic cancer cell lines harboring SPARC methylation, SPARC mRNA by RT-PCR", "assay_type": "cell-based, human", "description": "(§1) Four μg of total RNA was reverse-transcribed using Superscript II (Invitrogen). The SPARC RT-PCR reaction was performed under the condition as follow: 95° C. for 5 minutes; then 28 cycles of 95° C. for 20 seconds, 63° C. for 20 seconds, and 72° C. for 20 seconds; and a final extension of 4 minutes at 72° C. Primer sequences were 5′-AAGATCCATGAGAATGAGAAG-3′ (forward) (SEQ ID NO: 11) and 5′-AAA AGC GGG TGG TGC AAT G-3′ (reverse) (SEQ ID NO: 12). To check the integrity of mRNA, glyceraldehyde-3-phosphate dehydrogenase (GAPDH) was also amplified in the same PCR condition. For semiquantitative analysis, the RT-PCR was performed with primers for SPARC and GAPDH in duplex reactions, and range of linear amplification for both genes was examined with serial PCR cycles to determine the optimal cycle. The relative intensity of SPARC mRNA expression was then corrected for variable RNA recovery using the corresponding GAPDH mRNA measurement as a surrogate for total mRNA.\nEight pancreatic cancer cell lines (AsPC1, BxPC3, Capan2, CFPAC1, Hs766T, MiaPaCa2, PL3, and PL12) were treated with 5Aza-dC. Cells in log phase growth were seeded in T-75 culture flasks. After overnight incubation, the cells were exposed continuously to 5Aza-dC (1 μM) for 4 days, with a change of drug and culture medium every 24 hours.\nTo confirm that DNA methylation is a mechanism for the silencing of SPARC, we treated 8 pancreatic cancer cell lines harboring SPARC methylation with the demethylating agent 5Aza-dC."}, "[1]": {"test_system": "SPARC gene expression in pancreatic cancer cells", "details": "pancreatic cancer cells treated with 5Aza-dC; Sato et al., manuscript submitted; cited from earlier work"}, "[2]": {"test_system": "SPARC mRNA expression in fibroblasts (panc-f3)", "experiment": "Effect of TGF-β on SPARC expression in fibroblasts (semiquantitative RT-PCR)", "assay_type": "cell-based, human", "details": "TGF-β 5 ng/ml, 24 hours", "description": "as §1\n(§2) Because several growth factors such as TGF-β are known to induce the SPARC expression in fibroblasts (Wrana et al., 1991; Reed et al., 1994), and because TGF-β is one of the major secreted proteins highly expressed by pancreatic cancer cells (Friess et al., 1993), we examined the effect of TGF-β on SPARC expression in fibroblasts (panc-f3). […]"}, "[3]": {"test_system": "SPARC mRNA expression in AsPC1", "experiment": "Effect of TGF-β on SPARC mRNA expression in pancreatic cancer cell lines", "assay_type": "cell-based, human", "details": "TGF-β 5 ng/ml, data not shown", "description": "as §1, §2"}, "[4]": {"test_system": "SPARC mRNA expression in Panc1", "experiment": "Effect of TGF-β on SPARC mRNA expression in pancreatic cancer cell lines", "assay_type": "cell-based, human", "details": "TGF-β 5 ng/ml, data not shown", "description": "as §1, §2"}, "AsPC1 cells": {"test_system": "AsPC1 cells", "experiment": "Effect of exogenous SPARC on proliferation of pancreatic cancer cells (cell count by hemacytometer)", "assay_type": "cell-based, human", "details": "SPARC 10 μg/ml, 72 hours", "description": "(§3) We treated two pancreatic cancer cell lines (AsPC1 and Panc1) with exogenous SPARC. Cells in log phase growth were seeded at a density of 1×10^4 cells/well in 24-well plates. After overnight incubation, cells were treated with or without human platelet SPARC protein (10 μg/ml) for 72 hours, and the number of cells were counted by hemacytometer in three independent wells.\n(§4) The effect of exogenous SPARC protein on growth of pancreatic cancer cells in vitro was also examined. We treated two pancreatic cancer cell lines (AsPC1 and Panc1) with purified SPARC protein and counted the number of cells after 72 hours."}, "Panc1 cells": {"test_system": "Panc1 cells", "experiment": "Effect of exogenous SPARC on proliferation of pancreatic cancer cells (cell count by hemacytometer)", "assay_type": "cell-based, human", "details": "SPARC 10 μg/ml, 72 hours", "description": "as §3, §4"}},
  "data": [
    {"molecule": "CC(/C=C/C(=O)NO)=C\\[C@@H](C)C(=O)c1ccc(N(C)C)cc1", "note": "[trichostatin A (TSA), trichostatin A]", "values": [
      {"measurement": "SPARC mRNA expression after treatment (RT-PCR)", "setting": "SPARC mRNA expression; Hs766T cell line", "value": "did not induce the SPARC expression"}
    ]},
    {"molecule": "Nc1ncn([C@H]2C[C@H](O)[C@@H](CO)O2)c(=O)n1", "note": "[5Aza-dC, 5-Aza-2′-deoxycytidine]", "values": [
      {"measurement": "SPARC mRNA expression after treatment (RT-PCR)", "setting": "SPARC mRNA expression; 8 pancreatic cancer cell lines harboring SPARC methylation, 5Aza-dC 1 μM, 4 days", "value": "restored in 7 of the 8 cell lines"},
      {"measurement": "SPARC mRNA expression after treatment (RT-PCR)", "setting": "SPARC mRNA expression; Hs766T cell line", "value": "did not restore the SPARC expression"},
      {"measurement": "induction of SPARC gene expression (oligonucleotide microarrays)", "setting": "[1]", "value": "≥ 5", "unit": "fold"}
    ]},
    {"molecule": "TGF-β: human recombinant transforming growth factor (TGF)-β1 purchased from Sigma", "values": [
      {"measurement": "increase in SPARC mRNA expression", "setting": "[2]", "value": "~3,3 fold"},
      {"measurement": "SPARC transcript after treatment", "setting": "[3]", "value": "remained undetectable"},
      {"measurement": "increase in SPARC mRNA expression", "setting": "[4]", "value": "~1,5 fold"}
    ]},
    {"molecule": "B1", "values": [
      {"measurement": "growth suppression", "setting": "AsPC1 cells; P=0.001", "value": "~27", "unit": "%"},
      {"measurement": "cell number", "setting": "AsPC1 cells; mean±SD, untreated 5.8±0.8", "value": "4.2±0.3 ×10^4 cells"},
      {"measurement": "growth inhibition", "setting": "Panc1 cells; P<0.0001", "value": "~30", "unit": "%"},
      {"measurement": "cell number", "setting": "Panc1 cells; mean±SD, untreated 5.0±0.4", "value": "3.5±0.4 ×10^4 cells"}
    ]}
  ]
}
